Test results: US9072751B2, “Na/K-ATPase ligand” (priority 2006, dated 2015)

Experiments:
SYF+ cells = test: Procollagen expression in SYF+ cells; assay type: cell-based; settings: MBG 10 nM
Text: To examine whether cardiotronic steroids induced collagen synthesis by signaling through the Na/K-ATPase, we performed the following studies. First, we used pharmacological antagonism at several steps in the Na/K-ATPase cascade. Specifically, we used pharmacological antagonism of Src activation with PP2, nonspecific tyrosine kinase inhibition with herbimycin, inhibition of EGFR transactivation with AG1478, and nonspecific antioxidant administration with N-acetyle cysteine. […] Next we performed studies in the SYF and SYF+ cells (details available in the online supplement).
The effects of PP2 (1 μmol/L), herbimycin (1 μmol/L), AG1478 (250 nM), and N-acetyl cysteine (2.5 mmol/L) on MBG (10 nM) stimulation of procollagen expression also were found. The PP2, herbimycin AG1478, and N-acetyl cysteine were administered from 2 hours before the addition of MBG and continued throughout the 24 hours of MBG incubation (total of 26 hours). Each bar represents the mean.+−.SEM of n=8 experiments. b, effects of PP2 (1 μmol/L) and N-acetyle cysteine (2.5 mmol/L) on MBG (10 nM)-stimulated proline incorporation into collagen. Again, the PP2 an N-acetyl cysteine were added 2 hours before exposure to MBG. Each bar represents the mean.+−.SEM of N=5 experiments. c, effects of MBG 10 nM on procollagen content in SYF and SYF+ cells. Representative Western blots are shown above quantitative data. […]

SYF+Src line = test: In vitro wound healing (scrape injury) in SYF+Src fibroblasts; assay type: cell-based, mouse; settings: 12 hour pretreatment
Protocol: Next, we examined whether wound healing might be advantageously impacted by cardiotonic steroids. We grew a mouse fibroblast cell line, the SYF+Src line to confluence and make injuries by scraping with a pipette tip.
Representative images from fibroblasts at 3, 7 and 12 hours following injury. Quantification of wound closure from fibroblast cultures. Data represents N=6 separate pairs of experiments, each of which involves 3 determinations at each time point. Data shown as mean+/−SEM. **<0.01. We proposed to enhance skin fibroblast collagen production by topical or injected administration of cardiotonic steroids and prevent or reverse aging related loss of skin tone.

[1] = test system: isolated cardiac fibroblasts; test: Collagen-1 mRNA by standardized RT-PCR in cardiac fibroblasts; assay type: cell-based, rat; settings: 24 hours, 10 nM
Protocol: Standardized RT-PCR was used to measure gene expression, with GAPDH transcript used as the housekeeping gene, as reported previously.
To further examine the molecular basis of this cardiac fibrosis, isolated cardiac fibroblasts were subjected to increase doses of MBG (10^−10, 10^−9, and 10^−8 M). […] Using collagenase digestion, we observed that the vast majority of the proline incorporation was into collagen. Using standardized RT-PCR, we observed a doubling of mRNA for collagen-1 at 24 hours in response to 10 nM of MBG.
Representative Western blot for procollagen and quantitative densitometric data obtained in response to different doses of (a) MBG (all N=10), (b) MBG 10 nM contrasted with different doses of ouabain (0.1 to 100 nM) and digoxin (10 nM; all N=8). c, ouabain sensitive Rb uptake as a function of MBG and ouabain concentration (N=4 at each concentration for both MBG and ouabain; data expressed as fraction of control). d, relative proline incorporation in the supernatant and matrix, both will and without collagenase digestion (total). Each group (controls and different doses of MBG) contains N=7 replicants. The difference between the total and after collagenase digestion is reported as collagen. […] Bars on quantitative graphs represent the mean.+−.SEM. *P<0.05 and **P<0.01 vs control.

[2] = test system: left ventricular cardiac tissue; test: Cardiac tissue fibrosis, immunohistochemistry and Western blot after MBG infusion; assay type: in vivo, Sprague-Dawley rats
Protocol: Briefly, Sprague-Dawley rats weighing.apprxeq.250 g at the time of surgery were subjected to either sham surgery with no MBG infusion (Sham), sham surgery with placement of a minipump infusing MBG at 10 μg/kg per day (MBG), PNx, and PNx after immunization against MBG (PNx-IM). MBG of extremely high purity (>99%) was isolated from the venom of Bufa marinas by Kennedy et al. In addition to these maneuvers, a group of PNx animals was subjected to adrenalectomy as well (PNx-ADx).
(determined after extraction on a C-18 column using DELPHIA as described previously), aldosterone (determined with ELISA kit 10004377, Cayman Chemical) and cardiac immunohistochemistry (vida infra) were assessed 4 weeks after surgery.
Western blot analysis was performed on protein isolated from tissue homogenates, cell culture whole cell lysates, or nuclear extracts as described previously.
Immunization against MBG attenuated these increases. Western blot analysis confirmed that PNx and MBG had 2 to 2.5 times the expression of procollagin-1 and a smooth muscle actin seen with sham-operated controls, whereas PNx-IM expression of both procollagen-1 and a smooth muscle actin was substantially less than that seen with PNx.
Other data includes a representative pressure-volume loops obtained during vena cava occlusion from rats subjected to sham surgery (Sham), PNx, MBG infusion (MBG), and PNx after immunization against an MBG-albumin conjugate (PNx-IM). Regression lines fit to the end systolic pressure volume relationship (ESPVR, dotted line) and the end diastolic pressure volume relationship (EDPVR, solid line). B, ventricular cross-sectional areas determined from trichrome stains of tissue obtained from Sham, PNx, MBG, and PNx-IM animals (each group: N=8 animals, .apprxeq.100 measurements averaged to determine mean for each animal; data shown as the group mean.+−.SEM using N−8). Representative immunohistochemistry images of cardiac tissues stained for (c) collagen-1 and (d) a smooth muscle actin (aSMA). Counterstain for both c and d was hematoxlyn. Western blot and corresponding densitometric analysis for (e) procollagen-1 and (f) aSMA. Note that both collagen-1 and aSMA staining are much more intense in the PNx and MBG groups compared with Sham, whereas the PNx-IM staining is similar to Sham. Similarly, procollagen and aSMA expression are substantially higher in PNx and MBG animals compared with Sham, whereas immunization against MBG (PNx-IM) attenuated the changes seen with PNx. Data for e and f are derived from N=6 experiments in each group and shown as mean.+−.SEM. Sham refers to hearts isolated from control animals, PNx refers to PNx, MBG refers to MBG supplemented, and PNx-IM refers to animals immunized against MGB before PNx surgery. *P<0.05, **P<0.01 vs Sham, #P<0.01 vs PNx.

C[C@]12CC[C@H](O)C[C@@]1(O)CC[C@@H]1[C@@H]2CC[C@]2(C)[C@@H](c3ccc(=O)oc3)C[C@H]3O[C@]132 [MBG, marinobufagenin] was tested, and the “Upregulation of procollagen expression in SYF+ cells” value (SYF+ cells) was “very similar way as the primary cardiac fibroblast cultures”, the “Closure of the experimental lesion” value (SYF+Src line) was “markedly accelerated” and the “mRNA for collagen-1” value [1] was “doubling”. The Cardiac fibrosis [2] was “caused cardiac fibrosis”, the “Collagen-1 and a smooth muscle actin staining (immunohistochemistry)” value ([2]; heart tissue) was “marked increases” and the “Expression of a smooth muscle actin relative to sham-operated controls (Western blot)” value ([2]; heart tissue) was 2 to 2.5 times. The “Expression of procollagin-1 relative to sham-operated controls (Western blot)” value ([2]; heart tissue) was 2 to 2.5 times.
